US8391959B2, “Composition for improving efficiency of drug delivery” (Tel HaShomer Medical Research Infrastructure and Services …, priority 2004, dated 2013)

Tested on: striatum of normal Sprague-Dawley (SD) rats
Test: Cytotoxic tissue response after CED in rat striatum, T2-weighted and diffusion-weighted MRI 24 hours post treatment
Description: The resultant solution was infused into the striatum of normal Sprague-Dawley (SD) rats (males, 250-300 grams). T1-weighted MR images were acquired immediately post treatment to assess the extent of convection. Additionally, T2-weighted and diffusion-weighted MR images were acquired 24 hours post treatment to assess the response of the tissue and its correlation to the extent of convection.
In order to obtain a wide range in volumes of distribution, the infusion times were varied between 17 to 60 minutes. 13 rats were treated with Carboplatin (4 mg/ml, 17 minutes infusion). In order to obtain a wide range in volumes of distributions, in 6 out of those, the composition viscosity was increased by adding sucrose to the solution prior to infusion (Carboplatin 4 mg/ml, sucrose concentration-12%).
Early assessment of tissue response was performed using diffusion-weighted and T2-weighted MR images. The diffusion-weighted images were obtained by acquiring conventional T2-weighted images with the addition of diffusion-weighting gradients that filter out the signal from high mobility water molecules and sensitize the MR images to molecular diffusion/mobility [Stejskal et al. supra]. Regions of accumulated liquids or severe necrosis appear dark in diffusion-weighted MRI, while regions of slow water accumulation, such as in the case of intracellular water accumulation or inflammation, appear brighter.
The diffusion-weighted and T2-weighted MR images were obtained by a General Electric™ 3.0 T MRI machine with 10.4M 1× operating system, gradients intensity of up to 4.3 Gauss/cm and line scan diffusion-weighted imaging [Gudbjartsson et al., “Line scan diffusion imaging”, Magn. Reson. Med. 36:509-519, 1996] acquisition software package. Specially designed animal volume coils of 5 cm diameter were used for data acquisition.
The T2-weighted fast spin echo (FSE) MR images were acquired with: 256×128 matrix, FOV=12×9 cm^2, TR=3000 ms, TE=90 ms, and 2 mm slices with 0.5 mm gap. […]

| SMILES | histology of en block-resected lesion from rat brain (rat, in vivo) | tissue toxicity (rat, in vivo) | enhancement in diffusion-weighted MR images (cases of efficient convection, 24 hours post treatment) |
| --- | --- | --- | --- |
| CC(=O)O[C@H]1C(=O)[C@@]2(C)[C@H]([C@H](OC(=O)c3ccccc3)[C@]3(O)C[C@H](OC(=O)[C@H](O)[C@@H](NC(=O)c4ccccc4)c4ccccc4)C(C)=C1C3(C)C)[C@]1(OC(C)=O)CO[C@@H]1C[C@@H]2O [Taxol®, Taxol] | Severe damage covering most of the striatum is seen with widespread necrosis and early gliotic changes | severe tissue toxicity | – |
| N.N.O=C([O-])C1(C(=O)[O-])CCC1.[Pt+2] [Carboplatin] | – | – | significant enhancement |
